Laboratory results taken from patent US11401255B2, “Small molecule activators of Parkin enzyme function” (Mayo Foundation for Medical Education and Research, priority 2016, dated 2022).
Entries after “also recorded” stand apart in the source; their conditions may differ.

Key:
Parkin = Parkin (Homo sapiens (Human), UniProt O60260); experiment: Parkin activation in human primary fibroblasts (western blot); assay type: cell-based; details: for MFN1/2 degradation and pSer65-Ub levels: 5 μM before low dose CCCP (3.5 μM); for MFN1 ubiquitylation or pSer65-Ub signals, compound treatment alone: different concentrations, 2 h, absence of CCCP
Procedure: FIGS. 15A-15H show Parkin activation in primary fibroblasts, neuronal cells and in vitro. Positive control (PC) cells were treated with DMSO and 10 μM of CCCP. Negative control (NC) cells were treated with 3.5 μM CCCP, some cells were left untreated (−). […] Vinculin was used as loading control. […] FIG. 15C: Human fibroblasts were directly converted to neurons and treated as in FIG. 15B. […] Beta III tubulin confirmed successful conversion of fibroblasts to iNeurons. FIG. 15D: Rat PC12 cells were treated as in FIG. 15A. Western blots show enhanced ubiquitylation of MFN2 and TOM70, and robust pSer65-Ub induction similar to PC, but not NC cells. FIG. 15E: In vitro E2 discharge assay. Recombinant Parkin was pre-incubated with compound 4 or DMSO as control and was mixed to Ub-loaded UbcH7. […] Control reactions were performed without PINK1 or Parkin. FIG. 15F: In vitro assay with isolated mitochondria from untreated or CCCP-treated HeLa cells lacking Parkin. Mitochondrial preparations were mixed with recombinant Parkin, E1, UbcH7, ATP and either compound 4 or DMSO as a control and incubated for the indicated times. […] Control samples were incubated in reaction mix without Parkin. FIG. 15G: Protein melting was performed with 50 ng purified Parkin mixed with SYPRO orange and DMSO as control or 500 nM compound 4. […] FIG. 15H: Statistical analysis of three independent experiments as performed in FIG. 15G. Shown in the average value+/−SD (unpaired, two-sided t-test; *** p<0.0005).
FIG. 16A: Quantification of pSer65-Ub signal using sandwich ELISA from six independent experiments performed in human fibroblast treated as described in FIG. 15A. Shown in the average−/+SD. One-way ANOVA with Tukey's posthoc test (*** p<0.0005). FIG. 16B: Human primary fibroblasts were treated with different concentrations of all five compounds (1, 2, 3, 4, and 31) for 2 h. […] Different CCCP concentrations were used as positive control. FIG. 16C: Rat PC12 cells were pretreated with 5 μM of the compounds for 2 h and then treated with low dose of CCCP (3.5 μM). Control cells were treated with DMSO and either 10 μM CCCP (PC) or 3.5 μM (NC). Some cells received no CCCP (−). […] The PINK1/Parkin product pSer65-Ub was induced by all five compounds upon low dose treatment and in positive controls. FIG. 16D: PC12 cells were differentiated by treatment with NGF (NGF+). Some cells were left undifferentiated (NGF−). Cells were treated with 5 μM of compounds or DMSO as indicated. 2 h later, low dose CCCP (3.5 μM) was added to cells treated with test compounds. DMSO controls were either treated with 3.5 μM CCCP (NC) or 10 μM CCCP (PC). Some cells were not treated with CCCP (−). Western blots probed with antibodies against MFN1 show degradation in cells treated with compounds and in the positive control. Some degradation can also be observed in the negative control. […] Beta III tubulin was used to confirm successful differentiation. Vinculin was used as loading control.
Primary fibroblasts (Cell Applications) were cultured in fibroblast growth medium (FGM): DMEM containing 10% FBS, 1% penicillin-streptomycin and 1% non-essential amino acids. Direct conversion to neurons was performed utilizing short hairpin RNA targeting polypyrimidine-tract-binding protein (shPTB), which affects proneuronal micro-RNA circuits (Xue et al., Cell (2013) 152:82-96. Cells were seeded with 40,000 cells/mL and allowed to adhere overnight. 48 h after transduction with pLKO. 1_shPTB lentivirus, positive cells were selected with 2 μg/mL puromycin in fibroblast growth medium. On day 6 media was changed to FGM containing 10 ng/mL fibroblast growth factor (FGF, Genscript). On day 8, media was changed to differentiation media (DMEM:F12 (Invitrogen), 25 μg/mL insulin, 50 μg/mL transferrin, 0.1 μM putrescine 0.03 μM Na-selenite (all Sigma-Aldrich), and 15 ng/mL FGF) containing 5% FBS. On days 10 and 12 media was replaced with differentiation media containing reduced serum (2% FBS). […]

[1] = test system: wp2[pKM101]+wp2 uvrA mixed 1:2; experiment: Ames Test, E. coli
Description: The test used amino acid-dependent strains of Salmonella typhimurium and Escherichia coli to detect point mutations which involved substitution, addition or deletion of one or a few DNA base pairs. Point mutations were introduced in the histidine (Salmonella typhimurium) or the tryptophan (Escherichia coli) operon, making the tester strains incapable of producing these amino acids. The test detected mutations that revert the mutations present in the bacteria, restoring the functional capability to synthesize histidine or tryptophan. The revertant bacteria were detected by the ability to grow in the absence of the amino acid required by the parent test strain. A mutagenic potential of a tested compound was assessed by exposing these bacterial strains to different concentrations of the compounds and estimating number of revertant colonies grown in the absence (trace quantities) of the amino acid.
DMSO was used as the negative control.
For each experiment, tester strain cultures were grown overnight in Oxoid nutrient broth #2 at 37° C. with shaking at 235 rpm to a density of 1-2×10^9 colony forming units/mL (OD540˜2).
The tester strain (10 μL of night culture) was mixed with the test agent (10 µL of the DMSO stock) and GM liquid medium (30 μL). The obtained mixture was incubated at room temperature for 5 min in a sterile 1.5 mL tube. Then, to the tube was added 200 μL of molten top agar stored at 44° C. to prevent solidifying. After mixing with a pipette, the mixture was poured onto the surface of a GM agar plate (2.0 mL of GM agar per plate). After solidifying the top agar, the plate was inverted and incubated at 37° C. for 48 hours. Then, results were expressed as number of revertant colonies per plate.

[2] = 50 μM (row printed 100; conc. column shifted)
[3] = 100 μM (row printed 200; conc. column shifted)
[4] = 200 μM (row printed 0; conc. column shifted)

Chain of Parkin (O60260 whole entry): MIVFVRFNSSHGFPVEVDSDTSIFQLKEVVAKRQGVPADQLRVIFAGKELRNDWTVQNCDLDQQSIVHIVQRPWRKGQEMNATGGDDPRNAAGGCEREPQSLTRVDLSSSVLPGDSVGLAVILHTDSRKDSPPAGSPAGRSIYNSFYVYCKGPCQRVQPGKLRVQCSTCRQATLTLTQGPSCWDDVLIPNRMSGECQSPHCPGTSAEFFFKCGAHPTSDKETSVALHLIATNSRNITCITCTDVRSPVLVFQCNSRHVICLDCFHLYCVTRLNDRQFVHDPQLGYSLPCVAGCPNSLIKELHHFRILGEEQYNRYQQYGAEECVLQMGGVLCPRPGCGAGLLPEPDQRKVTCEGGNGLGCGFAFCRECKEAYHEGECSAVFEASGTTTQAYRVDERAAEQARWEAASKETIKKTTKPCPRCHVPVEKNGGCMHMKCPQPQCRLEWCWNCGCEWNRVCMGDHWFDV

Structure (SMILES) | MFN1/2 degradation and pSer65-Ub levels (Parkin) | MFN1 ubiquitylation or pSer65-Ub signals, compound treatment alone (Parkin) | Fold increase (over baseline) [1, 2] | Mean ± SD [1, 2] | Fold increase (over baseline) [1, 3] | Mean ± SD [1, 3] | Fold increase (over baseline) [1, 4] | Mean ± SD [1, 4] | mitofusin ubiquitylation/degradation and pSer65-Ub signal (Parkin; 5 μM for 2 h before different concentrations of CCCP) | mutagenic activity ([1]; 200 μM)
O=C(Cn1cnc2c1CCCC2)Nc1ccc(-c2ccccc2)cc1 [Compound 1] | enhanced degradation of the substrates MFN1/2 and increase of pSer65-Ub levels; also recorded: strongest effects | did not induce MFN1 ubiquitylation or pSer65-Ub signals | 0 | 0 ± 0 revertant colonies per plate | 0 | 0 ± 0 revertant colonies per plate | 0 | 0 ± 0 revertant colonies per plate | – | –
O=C(Cn1ccnc1-c1ccccn1)Nc1ccc(-c2ccccc2)cc1 [Compound 4] | enhanced degradation of the substrates MFN1/2 and increase of pSer65-Ub levels; also recorded: strongest effects | did not induce MFN1 ubiquitylation or pSer65-Ub signals | 0.75 | 3 ± 1.41 revertant colonies per plate | 0.38 | 1.5 ± 0.7 revertant colonies per plate | 1.38 | 5.5 ± 2.12 revertant colonies per plate | increased ubiquitylation/degradation of mitofusins and amplification of the pSer65-Ub signal | –
CC(C)(C)Sc1ccc(NC(=O)Cn2ccnc2)cc1 [Compound 3] | enhanced degradation of the substrates MFN1/2 and increase of pSer65-Ub levels | did not induce MFN1 ubiquitylation or pSer65-Ub signals | 1 | 4 ± 0 revertant colonies per plate | 1.75 | 7 ± 0 revertant colonies per plate | >75 | >300 revertant colonies per plate | – | mutagenic activity
CC(C)c1nccn1CC(=O)Nc1ccc(-c2ccccc2)cc1 [Compound 2] | enhanced degradation of the substrates MFN1/2 and increase of pSer65-Ub levels | did not induce MFN1 ubiquitylation or pSer65-Ub signals | 0.63 | 2.5 ± 2.12 revertant colonies per plate | 0.38 | 1.5 ± 0.7 revertant colonies per plate | 0.5 | 2 ± 2.82 revertant colonies per plate | – | –
Cc1nc2c(c(N3CCCN(Cc4ccccc4)CC3)n1)CCCC2 [Compound 31] | enhanced degradation of the substrates MFN1/2 and increase of pSer65-Ub levels | did not induce MFN1 ubiquitylation or pSer65-Ub signals | 1.13 | 4.5 ± 3.53 revertant colonies per plate | 0.38 | 1.5 ± 0.7 revertant colonies per plate | 0 | 0 ± 0 revertant colonies per plate | – | –
